Data: patent US20090062295A1, “Pharmaceutical Products” (MITSUBISHI PHARMA CORPORATION, priority 2005, published 2009)

Assay: Influence of pH on content of the compound in solution after storage (Example 1, HPLC)
Type: physicochemical
Settings: 1 mg/mL in Britton-Robinson buffer at pH 2, 3, 4, 5 and 6, 1 month storage at 25 or 40° C.
Experimental: A solution was prepared so as to contain the compound at 1 mg/mL of a solvent, and divided as aliquots in clear test tubes and the tubes were tightly sealed. The Britton-Robinson buffer was used as the solvent to prepare sample solutions at pH 2, 3, 4, 5 and 6.
After 1 month storage of these sample solutions under each temperature condition of 25 or 40° C., the contents of the compound were determined by HPLC under the following measurement conditions.
Sample solution: 1 mL of specimen/25 mL of mobile phase
Temperature: Room temperature Mobile phase: 1 M Et3N (adjusted at pH 8 with AcOH):CH3CN:H2O=50:250:700 Flow rate: […]
Loaded volume: 20 μL Quantification method: Corrected area percentage

Cl.O.O.O.O=C1CCC(c2ccc(Nc3ccncc3)cc2)=NN1 [the compound, 6-[4-(4-pyridylamino)phenyl]-4,5-dihydro-3(2H)-pyridazinone hydrochloride trihydrate]
remaining ratio of the compound: highest at pH 5 to 6
